Measured values published in patent publication US6653296B1, “Antiretroviral enantiomeric nucleotide analogs” (Institute of Organic Chemistry and Biochemistry of the …, priority 1992, dated 2003).
In brackets after ≈: the same amount, converted by molar mass. Read-outs that look alike come from different tables or passages of the source. Marks after values point to notes of the source that are not given here.

Tests used:
C3H/3T3 cells = assay: Microscopic alteration of C3H/3T3 cell culture morphology; assay type: cell-based, murine; conditions: concentration that results in a microscopic alteration of the C3H/3T3 cell culture morphology
[1] = test system: Moloney murine sarcoma virus (MSV); assay: MSV-induced transformation of C3H/3T3 cells; assay type: cell-based; conditions: concentration required to inhibit MSV-induced C3H/3T3 cell transformation by 50%; day 6
Method: The cells were seeded in 1-ml-wells of a 48-well microtiter plate and exposed to 80 PFU (plaque forming units) for 60-90 minutes. Then, the virus was removed and culture medium containing appropriate concentrations of the test compounds were added (1 ml per well). At day 6 post infection, MSV-induced transformation of the cell culture was examined microscopically.

HIV-2 = HIV-2 induced cytopathicity in MT-4 cells; assay type: cell-based, human immunodeficiency virus type 2; conditions: for EC50 HIV-2: concentration required to inhibit HIV-induced cytopathicity in MT-4 cells by 50%, 5 days
Method: (§1) The activity of the compounds against HIV-1 and HIV-2 induced cytopathicity was examined in human lymphocyte MT-4 cells. […] The infected cell cultures were then incubated at 37° C. for 5 days in a humidified CO2-controlled incubator. Then, the cytopathicity of the virus was examined by determination of MT-4 cell viability by trypan blue dye staining.

HIV-1 = HIV-1 induced cytopathicity in MT-4 cells; assay type: cell-based, human immunodeficiency virus type 1; conditions: for EC50 HIV-1: concentration required to inhibit HIV-induced cytopathicity in MT-4 cells by 50%, 5 days
Method: as §1

[2] = test system: Moloney murine sarcoma virus (MSV); assay: MSV-induced tumor formation and death in newborn NMRI mice, intraperitoneal administration; assay type: in vivo; conditions: for Mean day of animal death: observed 20 days
Method: Two gram newborn NMRI mice were injected intramuscularly in the left hind leg with 50 μl of 250-fold diluted stock preparation of Moloney murine sarcoma virus. […] Another group of mice (20 animals) was administered RPMI-1640 medium as placebo. All compounds were solubilized in RPMI-1640 medium. The mice were observed daily for 20 days and the day of tumor initiation and the day of animal death was recorded for each animal. Statistical analyses were performed by calculating the standard deviation.

MT-4 cells = assay: MT-4 cell viability (trypan blue); assay type: cell-based, human
Method: The activity of the compounds against HIV-1 and HIV-2 induced cytopathicity was examined in human lymphocyte MT-4 cells. […]. The infected cell cultures were then incubated at 37° C. for 5 days in a humidified CO2-controlled incubator. Then, the cytopathicity of the virus was examined by determination of MT-4 cell viability by trypan blue dye staining. The results are summarized in Table 1 in comparison with the data on the prototype compounds.

[3] = test system: Moloney murine sarcoma virus (MSV); assay: MSV-induced tumor formation in NMRI mice, oral administration; assay type: in vivo
Method: Three-week-old NMRI mice (about 10 grams body weight) were injected intramuscularly in the left hind leg with 50 μl of 20-fold diluted stock preparation of Moloney murine sarcoma virus. Starting 2-4 hours before virus infection, six animals received an orally administered test compound twice a day at 100 mg/kg(total dose) daily for five subsequent days. The control (placebo) group consisted of 14 animals. The experiment was evaluated as described in Example 35.

retrovirus = assay: Anti-retrovirus activity in vitro, conclusions on Table 1 (HIV-1, HIV-2, MSV); assay type: cell-based
herpes viruses = conditions: racemic mixtures, prior art; cited from earlier work
[4] = twice a day, 100 mg/kg total daily dose for five days

## C[C@@H](Cn1cnc2c(=O)[nH]c(N)nc21)OCP(=O)(O)O [(S)-PMPG, 9-(S)-(2-Phosphonomethoxypropyl)guanine]
C3H/3T3 cells
  MIC: 8 µg/mL (≈ 26.4 µM)

## C[C@H](Cn1cnc2c(S)ncnc21)OCP(=O)(O)O [(R)-9-PMP-6-thioPu, 9-(R)-(2-Phosphonomethoxypropyl)-6-mercaptopurine]
[1]
  EC50 MSV: 18 µg/mL (≈ 59.2 µM)
HIV-2
  EC50 HIV-2: >100 µg/mL
HIV-1
  EC50 HIV-1: >100 µg/mL

## Nc1ncnc2c1ncn2C[C@@H](CF)OCP(=O)(O)O [(S)-FPMPA, reference compound]
C3H/3T3 cells
  MIC: >100 µg/mL
[2]; single i.p. dose 10 mg/kg
  Mean day of animal death: 13.6 ± 2.8 days
[2]; single i.p. dose 20 mg/kg
  Mean day of animal death: 17.2 ± 2.2 days
[2]; single i.p. dose 50 mg/kg
  percentage of MSV-infected mice still alive at day 20 post infection: 100%
  Mean day of animal death: > 20 days

## C[C@H](Cn1cnc2c(=O)[nH]c(N)nc21)OCP(=O)(O)O [(R)-PMPG, 9-(R)-(2-phosphonomethoxypropyl)guanine]
C3H/3T3 cells
  MIC: 40 µg/mL (≈ 132 µM)

## Nc1ncnc2c1ncn2CCOCP(=O)(O)O [PMEA, reference compound]
C3H/3T3 cells
  MIC: >100 µg/mL

## C[C@H](Cn1nnc2c(N)ncnc21)OCP(=O)(O)O [(R)-9-PMP-8-azaA, 9-(R)-(2-Phosphonomethoxypropyl)-8-azaadenine]
[1]
  EC50 MSV: 0.43 µg/mL (≈ 1.49 µM)
HIV-2
  EC50 HIV-2: 1.75 µg/mL (≈ 6.07 µM)
HIV-1
  EC50 HIV-1: 2.42 µg/mL (≈ 8.4 µM)

## C[C@H](Cn1cnc2c(N3CCCCC3)nc(N)nc21)OCP(=O)(O)O [(R)-9-PMP-6-piperidino-DAP, 9-(R)-(2-Phosphonomethoxypropyl)-2-amino-6-piperidinopurine]
[1]
  EC50 MSV: 12.6 µg/mL (≈ 34 µM)
HIV-2
  EC50 HIV-2: >100 µg/mL
HIV-1
  EC50 HIV-1: >100 µg/mL

## Nc1ncnc2c1ncn2C[C@H](CF)OCP(=O)(O)O [(R)-FPMPA, reference compound]
C3H/3T3 cells
  MIC: >100 µg/mL
[2]; single i.p. dose 20 mg/kg
  Mean day of animal death: 10.4 ± 0.52 days
[2]; single i.p. dose 50 mg/kg
  Mean day of animal death: 11.2 ± 0.92 days

## C[C@H](Cn1cnc2c(N)nc(N)nc21)OCP(=O)(O)O [(R)-PMPDAP, 9-(R)-(2-Phosphonomethoxypropyl)-2,6-diaminopurine]
MT-4 cells; at 100 μg/ml
  toxicity to the cells: non-toxic
C3H/3T3 cells
  MIC: >100 µg/mL
HIV-2; MT-4 cells
  selectivity index (ratio cytotoxic dose/antivirally active dose) for HIV-2: > 2 000
[3]; 100 mg/kg/day
  increase of the mean day of tumor initiation: 50%
[3]; [4]
  Mean day of tumor initiation: 7.5 ± 1.0*^) day
  Number of mice developing tumor (%): 67%
[2]; i.p.
  in vivo anti-MSV activity relative to (R)-PMPA: five-fold superior over (R)-PMPA
  inhibiting tumor initiation and prolonging the life-span of MSV-infected mice (in words): highly effective
[2]; single i.p. dose 2 mg/kg
  percentage of MSV-infected mice still alive at day 20 post infection: 70%
  percentage of MSV-infected mice without tumor at day 20 post infection: 36%
  Mean day of animal death: 15 days
[2]; single i.p. dose 5 mg/kg
  percentage of MSV-infected mice still alive at day 20 post infection: 90%
  Mean day of animal death: 16.5 days
[2]; single i.p. dose 10 mg/kg
  percentage of MSV-infected mice still alive at day 20 post infection: 90%
  Mean day of animal death: 18.5 days
[2]; single i.p. dose 20 mg/kg
  percentage of MSV-infected mice still alive at day 20 post infection: 95%
  Mean day of animal death: 18 days
[2]; single i.p. dose of 10-20 mg/kg
  protection of the animals against MSV-induced tumor development: 90-95%
HIV-1; MT-4 cells
  selectivity index (ratio cytotoxic dose/antivirally active dose) for HIV-1: > 2 000

## C[C@H](Cn1cnc2c(NC3CCCCC3)nc(N)nc21)OCP(=O)(O)O [(R)-9-PMP-6-cyclohexyl-DAP, 9-(R)-(2-Phosphonomethoxypropyl)-2-amino-6-cyclohexylaminopurine]
HIV-2
  EC50 HIV-2: 7 µg/mL (≈ 18.2 µM)
HIV-1
  EC50 HIV-1: 8.0 µg/mL (≈ 20.8 µM)

## Nc1nc(N)c2ncn(C[C@@H](CF)OCP(=O)(O)O)c2n1 [(S)-FPMPDAP, reference compound]
C3H/3T3 cells
  MIC: >100 µg/mL
[2]; single i.p. dose 10 mg/kg
  Mean day of animal death: 16.7 ± 3.2 days
[2]; single i.p. dose 25 mg/kg
  Mean day of animal death: 14.6 ± 2.2 days
[2]; single i.p. dose 50 mg/kg
  Mean day of animal death: 16.5 ± 0.71 days

## Nc1nc(N)c2ncn(C[C@H](CF)OCP(=O)(O)O)c2n1 [(R)-FPMPDAP, reference compound]
C3H/3T3 cells
  MIC: >100 µg/mL
[2]; single i.p. dose 10 mg/kg
  Mean day of animal death: 12.0 ± 1.0 days
[2]; single i.p. dose 25 mg/kg
  Mean day of animal death: 14.1 ± 1.5 days
[2]; single i.p. dose 50 mg/kg
  Mean day of animal death: 13.9 ± 1.4 days

## C[C@@H](Cn1cnc2c(N)nc(N)nc21)OCP(=O)(O)O [(S)-PMPDAP, 9-(S)-(2-phosphonomethoxypropyl)-2,6-diaminopurine]
C3H/3T3 cells
  MIC: >100 µg/mL

## C[C@H](Cn1cnc2c(N)ncnc21)OCP(=O)(O)O [(R)-PMPA, 9-(R)-(2-Phosphonomethoxypropyl)adenine]
MT-4 cells
  toxicity to the cells: non-toxic
C3H/3T3 cells
  MIC: >100 µg/mL
[2]; i.p.
  inhibiting tumor initiation and prolonging the life-span of MSV-infected mice (in words): highly effective
[2]; single i.p. dose 2 mg/kg
  Mean day of animal death: 12.6 ± 1.26 days
[2]; single i.p. dose 5 mg/kg
  Mean day of animal death: 14.4 ± 0.47 days
[2]; single i.p. dose 10 mg/kg
  Mean day of animal death: 18.3 ± 1.10 days
[2]; single i.p. dose 20 mg/kg
  percentage of MSV-infected mice still alive at day 20 post infection: 100%
  Mean day of animal death: > 20 days
[2]; single i.p. dose 50 mg/kg
  percentage of MSV-infected mice still alive at day 20 post infection: 100%
  Mean day of animal death: > 20 days
[2]; single i.p. dose of 50 mg/kg
  protection against MSV-induced tumor development (in words): full protection
[2]; single i.p. dose of 10-50 mg/kg
  increasing the mean day of tumor initiation and animal death (in words): markedly effective
retrovirus; in vitro, summary of Table 1
  concentration markedly inhibitory to retrovirus replication: 1 to 2 µg/mL

## CCCCNc1nc(N)nc2c1ncn2C[C@@H](C)OCP(=O)(O)O [(R)-9-PMP-6-butyl-DAP, 9-(R)-(2-Phosphonomethoxypropyl)-2-amino-6-butylaminopurine]
[1]
  EC50 MSV: 3.27 µg/mL (≈ 9.13 µM)
HIV-2
  EC50 HIV-2: 9.8 µg/mL (≈ 27.3 µM)
HIV-1
  EC50 HIV-1: 13.1 µg/mL (≈ 36.6 µM)

## C[C@@H](Cn1cnc2c(N)ncnc21)OCP(=O)(O)O [(S)-PMPA, 9-(S)-(2-Phosphonomethoxypropyl)adenine]
C3H/3T3 cells
  MIC: >100 µg/mL
[2]; i.p. dose of 50 mg/kg
  antiretroviral activity in vivo (in words): no marked antiretroviral activity
[2]; single i.p. dose 10 mg/kg
  Mean day of animal death: 10.9 ± 0.88 days
[2]; single i.p. dose 20 mg/kg
  Mean day of animal death: 10.9 ± 0.88 days
[2]; single i.p. dose 50 mg/kg
  Mean day of animal death: 12.4 ± 0.84 days
retrovirus
  antiretroviral activity in vitro (in words): devoid of marked antiretroviral activity

## C[C@H](Cn1cnc2c(N(C)C)nc(N)nc21)OCP(=O)(O)O [(R)-9-PMP-6-dimethyl-DAP, 9-(R)-(2-Phosphonomethoxypropyl)-2-amino-6-dimethylaminopurine]
[1]
  EC50 MSV: 3.25 µg/mL (≈ 9.84 µM)
HIV-2
  EC50 HIV-2: 4.2 µg/mL (≈ 12.7 µM)
HIV-1
  EC50 HIV-1: 2.3 µg/mL (≈ 6.96 µM)

## C[C@H](Cn1cnc2c(S)nc(N)nc21)OCP(=O)(O)O [(R)-9-PMP-6-thioG, 9-(R)-(2-Phosphonomethoxypropyl)-2-amino-6-thiopurine]
[1]
  EC50 MSV: 3.94 µg/mL (≈ 12.3 µM)
HIV-2
  EC50 HIV-2: >100 µg/mL
HIV-1
  EC50 HIV-1: >100 µg/mL

## C[C@H](Cn1cnc2c(N3CCOCC3)nc(N)nc21)OCP(=O)(O)O [(R)-9-PMP-6-morpholino-DAP, 9-(R)-(2-Phosphonomethoxypropyl)-2-amino-6-morpholinopurine]
[1]
  EC50 MSV: 6.1 µg/mL (≈ 16.4 µM)
HIV-2
  EC50 HIV-2: >100 µg/mL
HIV-1
  EC50 HIV-1: >100 µg/mL

## CCC(C)Nc1nc(N)nc2c1ncn2C[C@@H](C)OCP(=O)(O)O (stereo partly drawn) [(R)-9-PMP-6-(2-butyl)-DAP, 9-(R)-(2-Phosphonomethoxypropyl)-2-amino-6-(2-butyl)aminopurine]
[1]
  EC50 MSV: 3.5 µg/mL (≈ 9.77 µM)
HIV-2
  EC50 HIV-2: 25 ± 15 µg/mL (≈ 69.8 µM)
HIV-1
  EC50 HIV-1: 30 ± 19 µg/mL (≈ 83.7 µM)

## CC(Cn1cnc2c(=O)[nH]c(N)nc21)OCP(=O)(O)O (stereo not shown) [PMPG]
Herpes viruses
  antiherpetic effect (in words): due to its substantial cytotoxicity

## C[C@H](Cn1cnc2c(NCc3ccccc3)nc(N)nc21)OCP(=O)(O)O [(R)-9-PMP-6-benzyl-DAP, 9-(R)-(2-Phosphonomethoxypropyl)-2-amino-6-benzylaminopurine]
[1]
  EC50 MSV: 0.3 µg/mL (≈ 0.765 µM)
HIV-2
  EC50 HIV-2: 8 µg/mL (≈ 20.4 µM)
HIV-1
  EC50 HIV-1: 10.3 µg/mL (≈ 26.3 µM)
